Test results published in article PMC3823594, “Conformational Changes Underlying Pore Dilation in the Cytoplasmic Domain of Mammalian Inward Rectifier K^+ Channels” (PLoS ONE, 2013).
Substitutions are numbered along the chain they refer to.

Experiments:
Assay in all cases: Two-electrode voltage clamp, ACh-dependent (m2R-dependent) K+ current activation
Assay type in all cases: cell-based
[1] = target: T1, Kir3.2 WT (Mus musculus, UniProt P48542); details: Kir3.2 WT with porcine m2R in Xenopus oocytes; −120 mV; Hill equation fit
T1 sequence (P48542 1-425): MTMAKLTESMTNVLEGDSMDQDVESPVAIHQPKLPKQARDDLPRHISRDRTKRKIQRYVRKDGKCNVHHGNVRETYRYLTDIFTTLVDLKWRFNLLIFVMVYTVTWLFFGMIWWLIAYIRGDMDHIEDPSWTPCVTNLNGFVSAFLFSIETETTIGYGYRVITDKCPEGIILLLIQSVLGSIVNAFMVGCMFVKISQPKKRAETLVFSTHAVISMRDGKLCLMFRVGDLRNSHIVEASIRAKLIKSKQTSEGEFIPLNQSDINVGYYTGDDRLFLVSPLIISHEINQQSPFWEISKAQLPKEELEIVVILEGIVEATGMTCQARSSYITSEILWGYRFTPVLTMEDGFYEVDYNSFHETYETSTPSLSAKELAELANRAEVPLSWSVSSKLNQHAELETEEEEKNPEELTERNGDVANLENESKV
T1 sequence (P06199 1-466 partner): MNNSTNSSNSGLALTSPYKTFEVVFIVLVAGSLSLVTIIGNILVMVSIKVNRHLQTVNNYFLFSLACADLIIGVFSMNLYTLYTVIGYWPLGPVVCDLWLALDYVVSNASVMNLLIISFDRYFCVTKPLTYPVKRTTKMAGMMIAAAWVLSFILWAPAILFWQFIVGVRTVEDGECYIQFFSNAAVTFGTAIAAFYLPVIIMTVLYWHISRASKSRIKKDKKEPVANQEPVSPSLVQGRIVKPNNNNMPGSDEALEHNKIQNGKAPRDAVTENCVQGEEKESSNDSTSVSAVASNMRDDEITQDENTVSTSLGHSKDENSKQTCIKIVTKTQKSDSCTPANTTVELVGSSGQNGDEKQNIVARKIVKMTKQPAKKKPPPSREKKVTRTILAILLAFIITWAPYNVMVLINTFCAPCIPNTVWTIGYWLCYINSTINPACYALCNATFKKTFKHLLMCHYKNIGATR
Description: (§1) The mouse Kir3.2d isoform was subjected to functional analyses. The amino acid numbers correspond to the longest mouse Kir3.2 isoform. Point mutations were introduced using the QuikChange site-directed mutagenesis kit (Stratagene, La Jolla, CA), and the presence of the mutations was confirmed by direct DNA sequencing. The care of Xenopus laevis was in accordance with the guideline of the Institute of Experimental Animal Sciences, Osaka University. The protocol was approved by the Animal Experiment Committee of Osaka University. The frogs were deeply anesthetized by immersing in 0.2% tricaine methanesulfonate for 20 min at 18°C. A portion of an ovary lobe was surgically removed and incubated with collagenase to remove follicular cells. The oocytes were injected with the cRNAs of Kir3.2 and porcine m2-muscarinic receptor (m2R), and maintained in modified Barth’s solution at 18°C with daily solution changes. Electrophysiological studies were undertaken 48–72 h later at room temperature (20–25°C). Two-electrode voltage-clamp recordings from oocytes were performed using a GeneClamp 500B amplifier (Axon Instruments, Sunnyvale, CA). […] The bath solution contained 40 mM KCl, 50 mM NaCl, 3 mM MgCl2, 0.15 mM niflumic acid, and 5 mM HEPES-KOH (pH 7.4). The currents were recorded in the absence or presence of various concentrations of acetylcholine (ACh). Ba^2+ (3 mM) was added at the end of the recording to estimate the endogenous leak current. The data are expressed as mean values ± standard error of the mean. For the quantitative estimation of ACh-dependent current responses of the wild-type (WT) and mutant channels, the current amplitudes at the end of test pulses at each ACh concentration ([ACh]) were fitted using the following equation:
(§2) I=min+[(max−min)/(1+(EC50/[ACh])^nH)]
(§3) where I is the current amplitude measured at the [ACh], n H is the Hill coefficient, and EC50 is the concentration that induces 50% of the maximal response. […] The values of n H and EC50 were calculated using a non-linear least-squares best fit (SigmaPlot 9; Systat Software). Statistical analyses were performed by one-way ANOVA with post-hoc tests.

[2] = target: T2, Kir3.2 M313G (Mus musculus, UniProt P48542, I313G); details: Kir3.2 M313G with porcine m2R in Xenopus oocytes; −120 mV; Hill equation fit
T2 sequence (P48542 19-425 I313G): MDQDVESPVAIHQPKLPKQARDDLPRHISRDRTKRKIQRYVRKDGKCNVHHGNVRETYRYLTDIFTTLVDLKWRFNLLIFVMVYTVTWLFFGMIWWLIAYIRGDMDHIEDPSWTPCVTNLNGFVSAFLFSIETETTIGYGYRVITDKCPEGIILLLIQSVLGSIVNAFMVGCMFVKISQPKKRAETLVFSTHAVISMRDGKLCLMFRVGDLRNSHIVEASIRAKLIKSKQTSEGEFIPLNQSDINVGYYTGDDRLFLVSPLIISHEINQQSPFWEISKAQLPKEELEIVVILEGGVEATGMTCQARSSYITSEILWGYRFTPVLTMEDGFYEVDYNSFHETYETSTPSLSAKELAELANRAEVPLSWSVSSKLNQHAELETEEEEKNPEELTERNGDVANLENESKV
T2 sequence (P06199 1-466 partner): T1 sequence (P06199 1-466 partner)
Description: as §1, §2, §3

[3] = target: T3, Kir3.2 M313R (Mus musculus, UniProt P48542, I313R); details: Kir3.2 M313R with porcine m2R in Xenopus oocytes; −120 mV; Hill equation fit, min not zero
T3 sequence (P48542 19-425 I313R): T2 sequence (P48542 19-425 I313G) with G295R
T3 sequence (P06199 1-466 partner): T1 sequence (P06199 1-466 partner)
Description: as §1, §2, §3

## CC(=O)OCC[N+](C)(C)C [ACh, acetylcholine]
[1]
  Hill coefficient: 0.83 ± 0.06
[2]
  Hill coefficient: 0.98 ± 0.07
[3]
  Hill coefficient: 0.52 ± 0.08
